In EP4043434A1, “NOVEL SULFONYLIMINES” (Karl-Franzens-Universität Graz, priority 2021, dated 2022):

Tests used:
[1] = tested on: Arthrobacter aurescens DSM20116; test: Drop plate method assay, antimicrobial activity; type: cell-based; set-up: key: high activity (++); Medium activity (+); no activity(-); conditions: 10 µl of 1 mg/ml in DMSO dropped on seeded agar plate, read after approximately 10-16 h
Protocol: (§1) A drop plate method assay (Alajlani, M.; et al. Chromatographia 2016, 79, 1527-1532.) with modification was performed to detect the antimicrobial and antifungal activity against the Gram positive bacteria Arthrobacter aurescens and the yeast strain Candida krusei. All compounds were dissolved in DMSO to a concentration of 1 mg/ml. Using sterile micropipette 10 µl of each compound was directly but gently dropped over seeded agar plate with test organism. The liquid was allowed to diffuse before the plate was inverted and incubated. The growth conditions for every strain was considered. The results were noted when a lawn of the indicator organism appeared on the plate (approximately 10-16 h). The magnitude of activity was noted as high activity (++), Medium activity (+),and no activity(-). Table 2: Antimicrobial and antifungal activities of compounds were detected over the test organisms.

[2] = tested on: Candida krusei CCMM L10; test: Drop plate method assay, antifungal activity; type: cell-based; set-up: key: high activity (++); Medium activity (+); no activity(-); conditions: 10 µl of 1 mg/ml in DMSO dropped on seeded agar plate, read after approximately 10-16 h
Protocol: as §1

[3] = tested on: L-6 cells; test: cells; type: cell-based, rat; conditions: for IC50: Rattus norvegicus, L6, cytotoxicity against L-6 cells, 70 h + 2 h incubation with Alamar Blue
Protocol: Assays were performed in 96-well microtiter plates, each well containing 100 µl of RPMI 1640 medium supplemented with 1% L-glutamine (200 mM) and 10% fetal bovine serum, and 4000 L-6 cell, a primary cell line derived from rat skeletal myoblasts (Page, C.; et al. J. Oncol. 1993, 3, 473-476; Ahmed, S. A.; Gogal, R. M.; et al. J. Immunol. Methods 1994, 170 211-224).
Serial drug dilutions of eleven 3-fold dilution steps covering a range from 100 to 0.002 µg/ml were prepared. After 70 hours of incubation the plates were inspected under an inverted microscope to assure growth of the controls and sterile conditions. 10 µl of Alamar Blue was then added to each well and the plates incubated for another 2 hours. Then the plates were read with a Spectramax Gemini XS microplate fluorometer (Molecular Devices Cooperation, USA) using an excitation wave length of 536 nm and an emission wave length of 588 nm. The IC50 values were calculated by linear regression (Huber, W.; et al. Acta Trop. 1993, 55, 257-261.) from the sigmoidal dose inhibition curves using SoftmaxPro software (Molecular Devices Cooperation, USA). Podophyllotoxin (Sigma P4405) was used as control. Table 1: Results for cytotoxicity against L-6 cells expressed as IC50 values (µM)

| SMILES | magnitude of activity, Arthrobacter aurescens DSM20116 [1] | magnitude of activity, Candida krusei CCMM L10 [2] | IC50 for cytotoxicity relative to the investigated concentration [3] | IC50 [3] |
| --- | --- | --- | --- | --- |
| CC(C)=C/C(=C\C=NS(C)(=O)=O)N1CCCCC1 [Example 10, (2E)-N-[5-Methyl-3-(piperidin-1-yl)hexa-2,4-dien-1-ylidene]methanesulfonamide] | ++ | + | – | – |
| CC(C)=C/C(=C\C=NS(=O)(=O)c1ccc([N+](=O)[O-])cc1)N1CCCC1.Cl [Example 3, (2E)-N-{5-Methyl-1-[(4-nitrophenyl)sulfonylimino]hexa-2,4-dien-3-yl}pyrrolidine-1-ium chloride] | ++ | + | 100 times | 250 µM |
| CC(C)=C/C(=C\C=NS(=O)(=O)c1ccccc1)N(C)C [Example 7, (2E)-N-(3-Dimethylamino-5-methylhexa-2,4-dien-1-ylidene)benzenesulfonamide] | ++ | + | – | – |
| CC(C)=C/C(=C\C=NS(=O)(=O)c1ccccc1)N1CCCC1 [Example 6, 2(E)-N-[5-Methyl-3-(pyrrolidin-1-yl)hexa-2,4-dien-1-ylidene]benzenesulfonamide] | ++ | + | – | – |
| CC(C)=C/C(=C\C=NS(=O)(=O)c1ccc([N+](=O)[O-])cc1)N1CCCCC1 [Example 2, (2E)-N-{5-Methyl-1-[(4-nitrophenyl)sulfonylimino]hexa-2,4-dien-3-yl}piperidin-1-ium chloride] | – | – | – | 206 µM |
| CC(C)=C/C(=C\C=NS(=O)(=O)c1ccc(Cl)cc1)N1CCCCC1 [Example 5, (2E)-4-Chloro-N-[5-methyl-3-(piperidin-1-yl)hexa-2,4-dien-1-ylidene]benzenesulfonamide] | ++ | + | – | – |
| CC(C)=C/C(=C\C=NS(=O)(=O)c1ccc(C)cc1)N1CCCC1 [Example 8, (2E)-4-Methyl-N-[5-methyl-3-(pyrrolidin-1-yl)hexa-2,4-dien-1-ylidene]benzenesulfonamide] | ++ | + | – | – |
